Results published in patent US6410528B1, “Morpholino ethers” (Glaxo Wellcome S.A., priority 1998, dated 2002).
≈ marks a conversion by molar mass, not a printed value.

What was measured:
[1] = test system: C. parapsilosis 2372E; assay: in vitro antifungal screen, MIC by two-fold serial dilution; format: cell-based, Candida parapsilosis
Method: (§1) The antifungal activity of the compounds of formula (I) may be determined using conventional in vitro and in vivo screens. Thus, the in vitro evaluation of the anti-fungal activity of compounds of the invention was performed on liquid or solid medium by the anti-fungal two-fold serial dilution technique of determining the minimum inhibitory concentration (MIC) of anti-fungal agent that inhibited development of growth after 24 to 48 hours of incubation at 37° C. In practice, a series of agar plates or broth microdilution panels containing two-fold dilutions of anti-fungal agent tested were inoculated with a standard culture of a clinically relevant pathogen, for example, Candida albicans. The agar plates or broth microdulution panels were then examined for the presence or absence of growth of the fungus and the appropriate MIC values were noted.
(§2) Compounds of formula (I) have been tested for anti fungal activity in a standard in vitro screen and the minimum inhibiting concentration (MIC; μg/ml) determined for each compound against a variety of clinically relevant pathogens.

[2] = test system: C. tropicalis 2808E; assay: as above; format: cell-based, Candida tropicalis
Method: as §1, §2

[3] = test system: C. glabrata 522; assay: as above; format: cell-based, Candida glabrata
Method: as §1, §2

[4] = test system: C. glabrata 2375E; assay: as above; format: cell-based, Candida glabrata
Method: as §1, §2

[5] = test system: C. albicans CL-236; assay: as above; format: cell-based, Candida albicans
Method: as §1, §2

[6] = test system: C. albicans 4711E; assay: as above; format: cell-based, Candida albicans
Method: as §1, §2

[7] = test system: C. pseudotropicalis 2371E; assay: as above; format: cell-based, Candida pseudotropicalis
Method: as §1, §2

[8] = toxicity (LD50) in female mice; format: in vivo; details: iv
Method: (§3) The compounds of the invention are essentially non-toxic at therapeutically useful levels. For example, the compound of Example 2 when admistered orally in a system candidiasis test (C.albicans 4711E) in mice, has an ED50 value of 9.0 mg/kg. The LD50 value for the compound of example 2, in female mice is >300 mg/kg iv.

[9] = test system: C.albicans 4711E; assay: system candidiasis test in mice; format: in vivo; details: administered orally, system candidiasis test (C.albicans 4711E) in mice
Method: The fungicidal activity of the compounds of formula (I) may also be determined in conventional tests in animals e.g. rats and mice. For example the lethal systems candidiasis test in mice.
as §3

| Compound | MIC [1] [µg/mL] | MIC [2] | MIC [3] [µg/mL] | MIC [4] [µg/mL] | MIC [5] | MIC [6] | MIC [7] | LD50 [8] [mg/kg] | ED50 [9] [mg/kg] |
| --- | --- | --- | --- | --- | --- | --- | --- | --- | --- |
| CC1CN(Cc2ccccc2)CC(OCC23CC4C(C)CCC4C4(C=O)CC2C=C(C(C)C)C43C(=O)O)O1 [Example 1i, [1R-(1α,3aβ,4β,4aβ,7β,7aα,8aβ)]8a-[(2R,6R)-(4-benzyl-6-methylmorpholin-2-yl)-oxymethyl]-4-formyl-4,4a,5,6,7,7a,8,8a-octahydro-7-methyl-3-(1-methylethyl)-1,4-methano-s-indacene-3a(1H)-carboxylic acid] | >125 | 0.008 µg/mL (≈ 0.0153 µM) | 1 (≈ 1.92 µM) | 1 (≈ 1.92 µM) | ≦0.001 μg/ml | ≦0.001 μg/ml | – | – | – |
| C=CCN1CC(C)OC(OCC23CC4C(C)CCC4C4(C=O)CC2C=C(C(C)C)C43C(=O)O)C1 [Example 2, [1R-(1α,3aβ,4β,4aβ,7β, 7aα,8aβ)]8a-[(2R,6R)-(4-allyl-6-methyl-morpholin-2-yl)-oxymethyl]-4-formyl-4,4a,5,6,7,7a,8,8a-octahydro-7-methyl-3-(1-methylethyl)-1,4-methano-s-indacene-3a(1H)-carboxylic acid] | >125 | 0.03 µg/mL (≈ 0.0636 µM) | 0.5 (≈ 1.06 µM) | 0.5 (≈ 1.06 µM) | 0.03 µg/mL (≈ 0.0636 µM) | 0.008 µg/mL (≈ 0.017 µM) | 0.004 µg/mL (≈ 0.00848 µM) | > 300 | 9.0 |
| CC1CN(C2CC2)CC(OCC23CC4C(C)CCC4C4(C=O)CC2C=C(C(C)C)C43C(=O)[O-])O1.[K+] [Example 4, [1R-(1α,3aβ,4β,4aβ,7β,7aα,8aβ)]8a-[(2R,6R)-(4-cyclopropyl-6-methyl-morpholin-2-yl)-oxymethyl]-4-formyl-4,4a,5,6,7,7a,8,8a-octahydro-7-methyl-3-(1-methylethyl)-1,4-methano-s-indacene-3a(1H)-carboxylic acid, potassium salt] | >125 | 0.06 µg/mL | 4 | 4 | 0.015 µg/mL | ≦0.001 μg/ml | 0.004 µg/mL | – | – |
| COc1ccc(CN2CC(C)OC(OCC34CC5C(C)CCC5C5(C=O)CC3C=C(C(C)C)C54C(=O)O)C2)cc1 [Example 16, [1R-(1α,3aβ,4β,4aβ,7β,7aα,8β)]8a-[(2R,6R)4-(4-methoxybenzyl)-6-methyl-morpholin-2-yl)-oxymethyl]-4-formyl-4,4a,5,6,7,7a,8,8a-octahydro-7-methyl-3-(1-methylethyl)-1,4-methano-s-indacene-3a(1H)-carboxylic acid] | 2 (≈ 3.63 µM) | 0.008 µg/mL (≈ 0.0145 µM) | 0.25 (≈ 0.453 µM) | 0.25 (≈ 0.453 µM) | ≦0.001 μg/ml | ≦0.001 μg/ml | ≦0.001 μg/ml | – | – |
| C=CCN1C[C@H](OC[C@@]23C[C@@H]4[C@H](C)CC[C@H]4[C@@]4(C#N)C[C@@H]2C=C(C(C)C)[C@@]34C(=O)O)O[C@H](C)C1 [Example 25, [1R-(1α,3aβ,4β,4aβ,7β,7aα,8aβ)]8a-[(2R,6R)-(4-allyl-6-methyl-morpholin-2-yl)-oxymethyl]-4-cyano4,4a,5,6,7,7a,8,8a-octahydro-7-methyl-3-(1-methylethyl)-1,4-methano-s-indacene-3a(1H)-carboxylic acid] | >125 | 0.5 µg/mL (≈ 1.07 µM) | 0.5 (≈ 1.07 µM) | 0.5 (≈ 1.07 µM) | 0.25 µg/mL (≈ 0.533 µM) | 0.25 µg/mL (≈ 0.533 µM) | 0.12 µg/mL (≈ 0.256 µM) | – | – |

The next lines start with results.

| MIC [1] [µg/mL] | MIC [2] | MIC [3] [µg/mL] | MIC [4] [µg/mL] | MIC [5] | MIC [6] | MIC [7] | Compound | LD50 [8] [mg/kg] | ED50 [9] [mg/kg] |
| --- | --- | --- | --- | --- | --- | --- | --- | --- | --- |
| 16 (≈ 34.1 µM) | 0.06 µg/mL (≈ 0.128 µM) | 0.5 (≈ 1.06 µM) | 0.25 (≈ 0.532 µM) | 0.015 µg/mL (≈ 0.0319 µM) | 0.008 µg/mL (≈ 0.017 µM) | 0.015 µg/mL (≈ 0.0319 µM) | C#CCN1CC(C)OC(OCC23CC4C(C)CCC4C4(C=O)CC2C=C(C(C)C)C43C(=O)O)C1 [Example 6, [1R-(1α,3aβ,4β,4aβ,7β,7aα,8aβ)]8a-[(2R,6R)-(4-(2-propynyl)-6-methyl-morpholin-2-yl)-oxymethyl]-4-formyl-4,4a,5,6,7,7a,8,8a-octahydro-7-methyl-3-(1-methylethyl)-1,4-methano-s-indacene-3a(1H)-carboxylic acid] | – | – |
| 4 (≈ 7.27 µM) | 0.008 µg/mL (≈ 0.0145 µM) | 0.25 (≈ 0.454 µM) | 0.25 (≈ 0.454 µM) | 0.008 µg/mL (≈ 0.0145 µM) | ≦0.001 μg/ml | ≦0.001 μg/ml | C=C(Br)CN1CC(C)OC(OCC23CC4C(C)CCC4C4(C=O)CC2C=C(C(C)C)C43C(=O)O)C1 [Example 7, [1R-(1α,3aβ,4β,4aβ,7β,7aα,8aβ)]8a-[(2R,6R)-(4-(2-bromoallyl)-6-methyl-morpholin-2-yl)-oxymethyl]-4-formyl-4,4a,5,6,7,7a,8,8a-octahydro-7-methyl-3-(1-methylethyl)-1,4-methano-s-indacene-3a(1H)-carboxylic acid] | – | – |
| 1 (≈ 1.98 µM) | ≦0.001 μg/ml | 0.03 (≈ 0.0593 µM) | 0.03 (≈ 0.0593 µM) | ≦0.001 μg/ml | ≦0.001 μg/ml | ≦0.001 μg/ml | C=C(Cl)CN1CC(C)OC(OCC23CC4C(C)CCC4C4(C=O)CC2C=C(C(C)C)C43C(=O)O)C1 (stereo not drawn) [Example 8, [1R-(1α,3aβ,4β,4aβ,7β,7aα,8aβ)]8a-[(2R6R)-(4-(2-chloroallyl)-6-methyl-morpholin-2-yl)-oxymethyl]-4-formyl-4,4a,5,6,7,7a,8,8a-octahydro-7-methyl-3-(1-methylethyl)-1,4-methano-s-indacene-3a(1H)-carboxylic acid] | – | – |
| 16 (≈ 31.5 µM) | 0.06 µg/mL (≈ 0.118 µM) | 1 (≈ 1.97 µM) | 1 (≈ 1.97 µM) | 0.06 µg/mL (≈ 0.118 µM) | 0.03 µg/mL (≈ 0.0591 µM) | 0.03 µg/mL (≈ 0.0591 µM) | CC1CN(CC=C(F)F)CC(OCC23CC4C(C)CCC4C4(C=O)CC2C=C(C(C)C)C43C(=O)O)O1 [Example 10, [1R-(1α,3aβ,4β,4aβ,7β,7aα,8aβ)]8a-[(2R,6R)-(4-(3,3-difluoroallyl)-6-methyl-morpholin-2-yl)-oxymethyl]-4-formyl-4,4a,5,6,7,7a,8,8a-octahydro-7-methyl-3-(1-methylethyl)-1,4-methano-s-indacene-3a(1H)-carboxylic acid] | – | – |
| 1 (≈ 2.06 µM) | 0.008 µg/mL (≈ 0.0165 µM) | 0.25 (≈ 0.515 µM) | 0.25 (≈ 0.515 µM) | ≦0.001 μg/ml | ≦0.001 μg/ml | ≦0.001 μg/ml | C=C(C)CN1C[C@H](OC[C@@]23C[C@@H]4[C@H](C)CC[C@H]4[C@@]4(C=O)C[C@@H]2C=C(C(C)C)[C@@]34C(=O)O)O[C@H](C)C1 [Example 12] | – | – |
| 8 (≈ 16.5 µM) | 0.015 µg/mL (≈ 0.031 µM) | 0.12 (≈ 0.248 µM) | 0.12 (≈ 0.248 µM) | 0.004 µg/mL (≈ 0.00827 µM) | ≦0.001 μg/ml | ≦0.001 μg/ml | C=C=CCN1CC(C)OC(OCC23CC4C(C)CCC4C4(C=O)CC2C=C(C(C)C)C43C(=O)O)C1 [Example 14, [1R-(1α,3aβ,4β,4aβ,7β,7aα,8aβ)]8a-[(2R,6R)-4-(2,3-butadienyl)-6-methyl-morpholin-2-yl)-oxymethyl]-4-formyl-4,4a,5,6,7,7a,8,8a-octahydro-7-methyl-3-(1-methylethyl)-1,4-methano-s-indacene-3a(1H)-carboxylic acid] | – | – |
| >125 | 1 µg/mL (≈ 2.17 µM) | 8 (≈ 17.3 µM) | 8 (≈ 17.3 µM) | 0.25 µg/mL (≈ 0.542 µM) | 0.03 µg/mL (≈ 0.065 µM) | – | CON1CC(C)OC(OCC23CC4C(C)CCC4C4(C=O)CC2C=C(C(C)C)C43C(=O)O)C1 [Example 18, 1R-(1α,3aβ,4β,4aβ,7β,7aα,8aβ)]8a-[(2R,6R)-6-methyl-4-methoxy-morpholin-2-yl)-oxymethyl]-4-formyl-4,4a,5,6,7,7a,8,8a-octahydro-7-methyl-3-(1-methylethyl)-1,4-methano-s-indacene-3a(1H)-carboxylic acid] | – | – |
